Assay results reported in US5830910A (priority 1995, dated 1998).
Entries after “also recorded” stand apart in the source; their conditions may differ.

What was measured:
Format in all cases: cell-based, rat
[1] = system: cultured hippocampal neurons; test: cells
Excerpt: (§1) Dissociated embryonic rat hippocampal cell cultures were established and maintained. All procedures conformed with the NIH Guide for the Care and Use of Laboratory Animals and were approved by the University of Kentucky Animal Care and Use Committee. Cultures were maintained on a polyethyleneimine-coated substrate in plastic 35-mm dishes or 96 wall plates (for cell survival studies) or glass-bottom 35-mm dishes (for [Ca^2+ ]i imaging studies). The cell density was ^~ 70-100 cells/mm^2. Cells were maintained in Eagle's minimum essential medium supplemented 10% with fetal bovine serum and containing 20 mM sodium pyruvate. […] Aβ25-35 (Bachem, lot ZJ744) and Aβ1-40 (Bachem, lot ZK600) were stored in the lyophilized form, and stocks were prepared immediately before use by dissolving the peptide at a concentration of 1 mM in sterile distilled water. […] Glutamate and colchicine (Sigma) were prepared as 200-500x stocks in saline. Cytochalasins D and E (Sigma) and calcium ionophore 4-bromo-A23187 (Calbiochem) were prepared as 500x stocks in dimethyl sulfoxide. Vitamin E (α-tocopherol; Sigma) was prepared as a 500x stock in ethanol. Nordihydroguaiaretic acid and FeSo4 were prepared as 500x stocks in sterile water.
Neuronal survival was quantified by counting viable neurons in the same microscope fields (10x objective) immediately before experimental treatment and at time points after treatment. In addition, cells were grown in 96-well plates and Alamar blue fluorescence (Alamar Laboratories)was quantified by using a fluorescence plate reader. Alamar Blue is a non-fluorescent substrate that, after reduction by cell metabolites, becomes fluorescent. Usually neurons that died in the time intervals (20-48 h) between examination points were absent. Viability of the remaining neurons was assessed by morphological criteria. Neutrons with intact neurites of uniform diameter and a soma with a smooth, round appearance were considered viable, whereas neurons with fragmented neurites and a vacuolated or swollen soma were considered nonviable. Survival values were expressed as percentages of the initial number of neurons present before experimental treatment. Statistical comparisons were made using ANOVA and Scheffe post-hoc tests for pairwise comparisons.
FIG. 5. […] Cytochalasin D was added to cultures 30 min prior to exposure to glutamate, and control cultures were exposed to 0.2% dimethylsulfoxide.
(A) Neuronal survival was quantified in cultures that had been pretreated with the indicated concentrations of cytochalasin D and then exposed to 50 μM glutamate for 20 h. Values represent the means and SEM of determinations made in four separate cultures. […] Pairwise statistical comparisons of cytochalasin-treated cultures with the control survival (Scheffe's test) indicated 1 nM cytochalasin D, P<0.05; 10 nM cytochalasin D, P<0.001; 100 and 1000 nM cytochalasin D, P<0.0001.
(B) Neuronal survival was quantified in cultures that had been pretreated with either vehicle (control) or 100 nM cytochalasin D and then exposed to the indicated concentrations of glutamate for 20 h. Values represent the means and SEM of determinations made in four separate cultures. […] ANOVA with Scheffe's post hoc test.
FIG. 6. (A) Cultures were pretreated with 100 nM cytochalasin D (CyD), 100 nM cytochalasin E (CyE), or 100 nM colchicine (Colch). Cultures were then exposed to 50 μM glutamate for 20 h. Values for neuronal survival represent the means and SEM of determinations made in four separate cultures. *P<0.001 compared to control value. **P<0.001 compared to value for cultures exposed to glutamate alone.
[…] Values represent the means and SEM of determinations made in four separate cultures. *P<0.01 compared to value for cultures exposed to 20 μM glutamate alone. **P<0.05 compared to cultures exposed to 50 μM glutamate alone.

[2] = system: neuronal [Ca^2+]i in cultured hippocampal neurons; test: measurement of [Ca^2+]i, fura-2 imaging; settings: for reduction in peak [Ca^2+]i response to glutamate: 1 h
Excerpt: as §1
Fluorescence ratio imaging of the Ca^2+ indicator dye fura-2 was used to quantify [Ca^2+ ]i in neuronal somata. Cells were incubated for 30-40 min in the presence of 2 μM acetoxymethyl ester form of the [Ca^2+ ]i indicator dye fura-2 and were then washed twice (2 ml/wash) with fresh medium and allowed to incubate at least 40 min before imaging. Immediately before imaging, the normal culture medium was replaced with Hanks' balanced saline solution (GIBCO) containing 10 mM HEPES buffer and 10 mM of glucose. Cells were imaged using a Zeiss Attofluor system with a oil objective or Quantex system with a 40x oil objective. The ratio of the fluorescence emission using two different excitation wavelengths (334 and 380 nm) was used to determine [Ca^2+ ]i. The system was calibrated using solutions containing either no Ca^2+ or a saturating level of Ca^2+ (1 mM) according to the following formula: [Ca^2+ ]i =KD [(R-Rmin) / (Rmax -R)] (F0 /FS). Values represent the average [Ca^2+ ]i in the neuronal cell body. Experimental treatments were added to the bathing medium by dilution from 100-500x stocks.
(A) Cultures were pretreated for 1 hr with 100 nM cytochalasin D and then [Ca^2+ ]i in neurons was monitored prior to and following exposure to 50 μM glutamate. The records represent the mean [Ca^2+ ]i in 8-12 neurons. Similar results were obtained in 4 separate experiments.
(B) Aβ-induced potentiation of [Ca^2+ ]i response to glutamate is abrogated by cytochalasin D. Cultures were left untreated (Control) or were exposed to 20 μM Aβ25-35 for 6 hr or cytochalasin D plus Aβ25-35 for 6 hr. The [Ca^2+ ]i was then monitored prior to following exposure to 50 μM glutamate. Values represent the means of 8-14 neurons. Similar results were obtained in 3 separate experiments.
(C) Cultures were pretreated for 3 hr with 50 μM Aβ alone or in combination with 100 nM cytochalasin D. The [Ca^2+ ]i in neurons was then monitored prior to and following exposure to 50 mM KCl. Values represent the mean of 14-23 neurons. Similar results were obtained in a separate experiment.
(D) Cultures were pretreated for 1 h with 100 nM cytochalasin D. The [Ca^2+ ]i in neurons was measured immediately prior to, and at 5 min following, exposure to the indicated concentrations of glutamate. Values represent the means and SEM of determinations made in 17-26 neurons. *P<0.05 (10 μM glutamate), P<0.02 (50 μM glutamate), P<0.01 (100 μAM glutamate) compared to corresponding control values.
FIG. 9. Cultures were pretreated for 3 h with vehicle (control) or 10 μM jasplakinolide. The [Ca^2+ ]i was monitored prior to and following exposure to 50 μM glutamate. Values represent the mean of determinations made in 10-12 neurons. Similar results were obtained in two additional experiments.
FIG. 10. […]

[3] = system: cultured hippocampal neurons; test: cells; settings: pretreated 1 hr; 100 μM glutamate, 24 hr
[4] = system: cultured hippocampal neurons; settings: 100 nM cotreated; 50 μM Aβ25-35, 24 hr

| Structure (SMILES) | neuronal survival upon exposure to glutamate ([1]; 100 nM pretreatment, 10 μM (P<0.05), 50 μM (P<0.001), 100 μM (P<0.02) glutamate, 20 h) | neurons killed upon exposure to glutamate ([1]; 100 nM pretreatment, 50 μM glutamate, 20 h) | effect on neuronal survival, alone ([1]; 10-100 nM alone, 20-h exposure) | effect on [Ca^2+]i response to calcium ionophore A23187 ([2]; 100 nM pretreatment, 500 nM A23187) | effect on K^+-induced elevation of [Ca^2+]i ([2]; 100 nM pretreatment, 50 mM KCl) | reduction in peak [Ca^2+]i response to glutamate ([2]; 100 nM, 10 μM glutamate, P<0.05) | reduction in peak [Ca^2+]i response to glutamate ([2]; 100 nM, 50 μM glutamate, P<0.02) | reduction in peak [Ca^2+]i response to glutamate ([2]; 100 nM, 100 μM glutamate, P<0.01) | rest [Ca^2+]i after Aβ exposure ([2]; 100 nM, 1 h pretreatment, 50 μM Aβ for 3 and 6 h) | reduction of [Ca^2+]i response to glutamate ([2]; 100 nM, 1 hr pretreatment, 50 μM glutamate) | effect on Aβ-induced potentiation of [Ca^2+]i response to glutamate ([2]; Aβ pretreatment, 50 μM glutamate) | [Ca^2+]i responses to glutamate, Aβ, and membrane depolarization ([2]; pretreated) | effect on glutamate neurotoxicity [3] | effect on Aβ neurotoxicity [4] | protection against glutamate toxicity ([1]; 100 nM, 50 μM glutamate, 20 h) | effect on [Ca^2+]i response to glutamate ([2]; 100 nM) | rest [Ca^2+]i, alone ([2]; alone, data not shown) | effect on [Ca^2+]i response to Aβ ([2]; data not shown) |
| --- | --- | --- | --- | --- | --- | --- | --- | --- | --- | --- | --- | --- | --- | --- | --- | --- | --- | --- |
| C=C1[C@@H](C)[C@H]2[C@H](Cc3ccccc3)NC(=O)[C@]23[C@H](OC(C)=O)/C=C/[C@@](C)(O)C(=O)[C@@H](C)C/C=C/[C@H]3[C@@H]1O [Cytochalasin D, cytochalasin D] | significantly greater | < 10% | no significant effect on neuronal survival | did not attenuate; also recorded: does not affect | suppressed | approximately 60 nM | approximately 170 nM | ~460 nM | not significantly elevated | approximately 30% | completely blocked; also recorded: suppressed; also recorded: abrogated | attenuated | significantly attenuated | essentially eliminated |  |  |  |  |
| COc1cc2c(c(OC)c1OC)-c1ccc(OC)c(=O)cc1[C@@H](NC(C)=O)CC2 [Colchicine, colchicine, reference compound] |  |  |  |  |  |  |  |  |  |  |  |  | ineffective | exacerbated Aβ toxicity | did not protect neurons against glutamate toxicity | did not attenuate | elevation of rest [Ca^2+ ]i | did not attenuate |
